IC50 data for 45 compounds are collected here from US20060252807A1, “Novel ortho-terphenyl inhibitors of p38 kinase and methods of treating inflammatory disorders” (Kalypsys, Inc., priority 2005, published 2006).

Some results are limits rather than exact numbers.

The target in one test is T1, active p38 alpha enzyme (Upstate Biotechnology) (Homo sapiens, UniProt Q16539).
T1 construct: purchased Upstate Biotechnology
T1 sequence (Q16539 whole entry): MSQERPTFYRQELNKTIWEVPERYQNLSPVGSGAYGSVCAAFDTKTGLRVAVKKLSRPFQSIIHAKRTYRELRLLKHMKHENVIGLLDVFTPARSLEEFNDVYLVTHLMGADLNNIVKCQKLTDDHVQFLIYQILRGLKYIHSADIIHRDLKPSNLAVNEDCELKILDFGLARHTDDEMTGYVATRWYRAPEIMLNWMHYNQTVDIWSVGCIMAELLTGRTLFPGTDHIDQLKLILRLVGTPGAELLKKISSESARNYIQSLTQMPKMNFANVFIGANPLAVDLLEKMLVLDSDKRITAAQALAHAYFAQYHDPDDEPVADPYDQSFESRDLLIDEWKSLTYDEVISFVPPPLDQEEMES
Kind of test: p38α biochemical assay (ATP turnover, luminescent detection, Cambrex PKlight). Particulars: p38α biochemical assay, Table 1 Biological Activity. Here is the method: The p38α biochemical assay employed is based on measurement of total ATP turnover following enzyme incubation with substrate in the presence of ATP with the use of a luminescent detection reagent (Cambrex PKlight). The assays were performed in 1536-well white opaque plates.
The final volume was 7.5005 μL as prepared prepared from the addition of 5 ul of kinase reaction (p38 alpah+MapkapK2+ATP) with 0.0005 μL compound dissolved in DMSO, and 2.5 ul of the detection reagent. Assay buffer contains the following reagents to give final concentration in the assay: 200 mM Tris, 100 mM MgCl2, 1.5 mM EGTA, 4 mM CaCl2, 20 mM MOPS, 1 mM EDTA, 1% glycerol, 0.1% B-Mecaptoethanol, and 1 mg/ml BSA. Test compounds are pinned using proprietary pintool technology (Kalypsys, Inc) and delivered as […] amounts into the 5 ul mixture of active p38 alpha enzyme (Upstate Biotechnology) and MapkapK2 (Upstate Biotechnology) whole protein as a substrate for phosphorylation in the presence of 1.4 uM final concentration ATP. Reactions are incubated at 30C for 2 hours and detection reagent is added in 2.5 ul/well amounts. Assay is read using a Perkin Elmer Viewlux.
Broadly, the IC50 is the point on the concentration scale where inhibition reaches its midpoint. Read a high IC50 as weaker potency. As for `CC(C)NC(=O)c1csc(-c2oc(CNC(=O)Cc3ccccc3O)nc2-c2ccc(F)cc2)n1` [Example 143], the IC50 is at most 1000 nM.
Still for that read-out and setting: under `CC(C)NC(=O)c1csc(-c2c(-c3ccc(F)cc3)noc2CNC(=O)C2CN(C(=O)OC(C)(C)C)CCN2)n1` (stereo not drawn) [Example 789] stands above 1000 nM; under `CC(C)NC(=O)c1csc(-c2oc(CNC(=O)/C=C/c3ccccc3F)nc2-c2ccc(F)cc2)n1` [Example 178], at most 1000 nM.
`Cc1cccc([N+](=O)[O-])c1C(=O)NCc1nc(-c2ccc(F)cc2)c(-c2nc(C(=O)NC(C)C)cs2)o1` [Example 220] showed an IC50 of at most 1000 nM.
Same read-out and setting: under `Cc1nc(Br)sc1C(=O)N1CCN(Cc2nc(-c3ccc(F)cc3)c(-c3nc(C(=O)NC(C)C)cs3)o2)CC1` [Example 539] stands above 1000 nM.
The same measure, in the same setting: the figure for `CC(C)NC(=O)c1csc(-c2oc(CNC(=O)C3CN(C(=O)OC(C)(C)C)CCN3)nc2-c2ccc(F)cc2)n1` (stereo not drawn) [Example 315] is at most 1000 nM; for `COc1ccc([N+](=O)[O-])c(C(=O)NCc2nc(-c3ccc(F)cc3)c(-c3nc(C(=O)NC(C)C)cs3)o2)c1` [Example 265] it is at most 1000 nM.
Still for that read-out and setting: under `CC(CC(=O)NCc1onc(-c2ccc(F)cc2)c1-c1nc(C(=O)NC(C)C)cs1)CC(C)(C)C` (stereo not drawn) [Example 637] stands above 1000 nM; under `CC(C)NC(=O)c1csc(-c2c(-c3ccc(F)cc3)noc2CN2CCCCC2)n1` [Example 30, 2-|3-(4-Fluoro-phenyl)-5-piperidin-1-ylmethyl-isoxazol-4-yl|-thiazole-4-carboxylic acid isopropylamide], above 1000 nM.
Consider `CC(C)NC(=O)c1csc(-c2oc(CNC(=O)c3ccc(C(C)C)cc3)nc2-c2ccc(F)cc2)n1` [Example 171], for which the IC50 is above 1000 nM.
Take `CCCCCc1ccc(C(=O)NCc2onc(-c3ccc(F)cc3)c2-c2nc(C(=O)NC(C)C)cs2)cc1` [Example 732]: the IC50 is above 1000 nM.
On the same count and under the same terms, the figure for `CC(C)NC(=O)c1csc(-c2oc(CN3CCN(C(=O)C(Cc4ccccn4)NC(=O)OC(C)(C)C)CC3)nc2-c2ccc(F)cc2)n1` (stereo not drawn) [Example 569] is above 1000 nM; for `CC(=O)Oc1cccc(C(=O)N2CCN(Cc3nc(-c4ccc(F)cc4)c(-c4nc(C(=O)NC(C)C)cs4)o3)CC2)c1` [Example 452] it is at most 1000 nM; for `Cc1cc(C(=O)N2CCN(Cc3nc(-c4ccc(F)cc4)c(-c4nc(C(=O)NC(C)C)cs4)o3)CC2)n[nH]1` [Example 353] it is at most 1000 nM.
Still for that read-out and setting: under `CC(C)NC(=O)c1csc(-c2c(-c3ccc(F)cc3)noc2CNC(=O)c2cc(Cl)ccc2O)n1` [Example 671] stands above 1000 nM; under `CC(C)NC(=O)c1csc(-c2c(-c3ccc(F)cc3)noc2CNC(=O)c2ccc(C=O)cc2)n1` [Example 608], above 1000 nM; under `Cc1nc(Br)sc1C(=O)NCc1onc(-c2ccc(F)cc2)c1-c1nc(C(=O)NC(C)C)cs1` [Example 777], above 1000 nM.

Still in this test, the particulars now being: p38α kinase; Table 1 Biological Activity.
As to `CC(C)NC(=O)c1csc(-c2c(-c3ccc(F)cc3)noc2CN(C)CC(O)c2ccc(O)cc2)n1` (stereo not drawn) [Example 1572], the IC50 was above 1000 nM.
`CSc1ccccc1NC(=O)c1csc(-c2sc(C)nc2-c2ccc(F)cc2)n1` [Example 1991] had an IC50 above 1000 nM.
`Cc1nc(-c2ccc(F)cc2)c(-c2nc(C(=O)NCc3cc(F)cc(F)c3)cs2)s1` [Example 1791] displayed an IC50 of at most 1000 nM.
The same measure, in the same setting: the figure for `Cc1nc(-c2ccc(F)cc2)c(-c2nc(C(=O)NC3CCC(C)CC3)cs2)s1` (stereo not drawn) [Example 1744] is at most 1000 nM; for `CC(C)NC(=O)c1csc(-c2oc(CN3CCN(c4ccc(Cl)c(Cl)c4)CC3)nc2-c2ccc(F)cc2)n1` [Example 1298] it is above 1000 nM.
The same measure, in the same setting: under `CC(C)NC(=O)c1csc(-c2c(-c3ccc(F)cc3)noc2CNCCc2ccc(S(N)(=O)=O)cc2)n1` [Example 1503] stands above 1000 nM.
Same read-out and setting: under `CCCN(C)Cc1nc(-c2ccc(F)cc2)c(-c2nc(C(=O)NC(C)C)cs2)o1` [Example 1189] stands above 1000 nM.
For the compound `CC(C)NC(=O)c1csc(-c2c(-c3ccc(F)cc3)n[nH]c2C2CCN(C(=O)C(F)(F)F)CC2)n1` [Example 2174, 2-{3-(4-Fluoro-phenyl)-5-|1-(2,2,2-trifluoro-acetyl)-piperidin-4-yl|-1H-pyrazol-4-yl}-thiazole-4-carboxylic acid isopropylamide], the IC50 was at most 1000 nM.
Turning to `CC(C)NC(=O)c1csc(-c2oc(CNCc3ccco3)nc2-c2ccc(F)cc2)n1` [Example 1076], the concentration for half-maximal inhibition (IC50) is above 1000 nM.
Consider `CCN(CCO)C(=O)c1csc(-c2sc(C)nc2-c2ccc(F)cc2)n1` [Example 1845], for which the IC50 was above 1000 nM.
Same read-out and setting: the figure for `Cc1nc(-c2ccc(F)cc2)c(-c2nc(C(N)=O)cs2)o1` [Example 2159, 2-|4-(4-Fluoro-phenyl)-2-methyl-oxazol-5-yl|-thiazole-4-carboxylic acid amide] is above 1000 nM.
In turn, `CC(C)NC(=O)c1csc(-c2oc(CN3C(C)CCCC3C)nc2-c2ccc(F)cc2)n1` (stereo not drawn) [Example 1208] gave an IC50 above 1000 nM.
In turn, `CC(C)NC(=O)c1csc(-c2c(-c3ccc(F)cc3)n[nH]c2C2CCN(C(=O)c3ccc(C=O)cc3)CC2)n1` [Example 847] came in with an IC50 of at most 1000 nM.
Same read-out and setting: under `COc1ccccc1NCc1nc(-c2ccc(F)cc2)c(-c2nc(C(=O)NC(C)C)cs2)o1` [Example 1326] stands above 1000 nM; under `CC(C)NC(=O)c1csc(-c2c(-c3ccc(F)cc3)noc2CNc2ccccc2C(=O)c2ccccc2)n1` [Example 1693], above 1000 nM.
As to `CC(C)NC(=O)c1csc(-c2c(-c3ccc(F)cc3)noc2CNCCCCO)n1` [Example 1406], the IC50 is above 1000 nM.
As for `CC(C)NC(=O)c1csc(-c2oc(CN3CCN(c4ccccc4)CC3)nc2-c2ccc(F)cc2)n1` [Example 1241], the IC50 is above 1000 nM.
Consider `Cc1nc(-c2ccc(F)cc2)c(-c2nc(C(=O)NCc3ccccc3C)cs2)s1` [Example 1755], for which the IC50 was at most 1000 nM.
Same read-out and setting: the figure for `Cc1nc(-c2ccc(F)cc2)c(-c2nc(C(=O)NCCO)cs2)s1` [Example 1712] is at most 1000 nM; for `Cc1cccc(C(=O)N2CCC(c3[nH]nc(-c4ccc(F)cc4)c3-c3nc(C(=O)NC(C)C)cs3)CC2)c1[N+](=O)[O-]` [Example 935] it is above 1000 nM; for `CC(C)NC(=O)c1csc(-c2c(-c3ccc(F)cc3)n[nH]c2C2CCN(C(=O)c3cc([N+](=O)[O-])ccc3Cl)CC2)n1` [Example 985] it is above 1000 nM.
Still for that read-out and setting: under `COc1ccccc1NC(=O)c1csc(-c2sc(C)nc2-c2ccc(F)cc2)n1` [Example 1974] stands at most 1000 nM; under `CC(C)NC(=O)c1csc(-c2oc(CN(C)Cc3cccc4ccccc34)nc2-c2ccc(F)cc2)n1` [Example 1283], above 1000 nM.
As to `O=C(NC1CCCc2ccccc21)c1csc(-c2c(-c3ccc(F)cc3)n[nH]c2C2CCNCC2)n1` (stereo not drawn) [Example 2116], the IC50 is above 1000 nM.
Take `CC(C)NC(=O)c1csc(-c2oc(CN3CCN(C(=O)OC(C)(C)C)CC3)nc2-c2ccc(F)cc2)n1` [Example 1258]: the IC50 was above 1000 nM.
For the compound `CCN(CCO)Cc1onc(-c2ccc(F)cc2)c1-c1nc(C(=O)NC(C)C)cs1` [Example 1520], the IC50 is above 1000 nM.
For the compound `CC1CCC(NCc2nc(-c3ccc(F)cc3)c(-c3nc(C(=O)NC(C)C)cs3)o2)CC1` (stereo not drawn) [Example 1089], the IC50 was above 1000 nM.
In turn, `COc1ccc(CCNC(=O)c2csc(-c3c(-c4ccc(F)cc4)n[nH]c3C3CCNCC3)n2)cc1` [Example 2122] registered an IC50 above 1000 nM.
